Read-outs that look alike come from different tables or passages of the source.
Experiments:
Test in all cases: Glasshouse assay for herbicidal activity (pre- and post-emergence), percentage phytotoxicity
Format in all cases: in vivo
[1] = system: Alopecurus myosuroides (ALOMY); conditions: Alopecurus myosuroides
Procedure, shortened: (§1)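 Seeds were sown in standard soil in pots and grown one day (pre-emergence) or about 12 days (post-emergence) before herbicide application. Plants were kept at 24/18 °C (warm-climate) or 20/16 °C (cool-climate) day/night, 16 h light, 65% humidity, watered twice daily, and damage was scored visually at 15 DAA (POST) or 20 DAA (PRE).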

[2] = system: Avena fatua (AVEFA); conditions: Avena fatua
Procedure, shortened: as §1

[3] = system: Echinochloa crus-galli (ECHCG); conditions: Echinochloa crus-galli
Procedure, shortened: as §1

[4] = system: Lolium perenne (LOLPE); conditions: Lolium perenne
Procedure, shortened: as §1

[5] = post-emergence, 360 h, Rate 250 g/ha, post-emergence, visual assessment 15 DAA, 100%=total damage, 0%=no damage, read-out: Post-emergence herbicidal activity (percentage phytotoxicity) ALOMY POST
[6] = pre-emergence, 480 h, Rate 250 g/ha, pre-emergence, visual assessment 20 DAA, 100%=total damage, 0%=no damage, read-out: Pre-emergence herbicidal activity (percentage phytotoxicity) ALOMY PRE
[7] = post-emergence, 360 h, Rate 250 g/ha, post-emergence, visual assessment 15 DAA, 100%=total damage, 0%=no damage, read-out: Post-emergence herbicidal activity (percentage phytotoxicity) AVEFA POST
[8] = pre-emergence, 480 h, Rate 250 g/ha, pre-emergence, visual assessment 20 DAA, 100%=total damage, 0%=no damage, read-out: Pre-emergence herbicidal activity (percentage phytotoxicity) AVEFA PRE
[9] = post-emergence, 360 h, Rate 250 g/ha, post-emergence, visual assessment 15 DAA, 100%=total damage, 0%=no damage, read-out: Post-emergence herbicidal activity (percentage phytotoxicity) ECHCG POST
[10] = pre-emergence, 480 h, Rate 250 g/ha, pre-emergence, visual assessment 20 DAA, 100%=total damage, 0%=no damage, read-out: Pre-emergence herbicidal activity (percentage phytotoxicity) ECHCG PRE
[11] = post-emergence, 360 h, Rate 250 g/ha, post-emergence, visual assessment 15 DAA, 100%=total damage, 0%=no damage, read-out: Post-emergence herbicidal activity (percentage phytotoxicity) LOLPE POST
[12] = pre-emergence, 480 h, Rate 250 g/ha, pre-emergence, visual assessment 20 DAA, 100%=total damage, 0%=no damage, read-out: Pre-emergence herbicidal activity (percentage phytotoxicity) LOLPE PRE
[13] = post-emergence, 360 h, Rate 250 g/ha, post-emergence, assessed visually 15 DAA, 100%=total damage, 0%=no damage, read-out: Post-emergence herbicidal activity (percentage phytotoxicity) ALOMY POST
[14] = pre-emergence, 480 h, Rate 250 g/ha, pre-emergence, assessed visually 20 DAA, 100%=total damage, 0%=no damage, read-out: Pre-emergence herbicidal activity (percentage phytotoxicity) ALOMY PRE
[15] = post-emergence, 360 h, Rate 250 g/ha, post-emergence, assessed visually 15 DAA, 100%=total damage, 0%=no damage, read-out: Post-emergence herbicidal activity (percentage phytotoxicity) AVEFA POST
[16] = pre-emergence, 480 h, Rate 250 g/ha, pre-emergence, assessed visually 20 DAA, 100%=total damage, 0%=no damage, read-out: Pre-emergence herbicidal activity (percentage phytotoxicity) AVEFA PRE
[17] = post-emergence, 360 h, Rate 250 g/ha, post-emergence, assessed visually 15 DAA, 100%=total damage, 0%=no damage, read-out: Post-emergence herbicidal activity (percentage phytotoxicity) ECHCG POST
[18] = pre-emergence, 480 h, Rate 250 g/ha, pre-emergence, assessed visually 20 DAA, 100%=total damage, 0%=no damage, read-out: Pre-emergence herbicidal activity (percentage phytotoxicity) ECHCG PRE
[19] = post-emergence, 360 h, Rate 250 g/ha, post-emergence, assessed visually 15 DAA, 100%=total damage, 0%=no damage, read-out: Post-emergence herbicidal activity (percentage phytotoxicity) LOLPE POST
[20] = pre-emergence, 480 h, Rate 250 g/ha, pre-emergence, assessed visually 20 DAA, 100%=total damage, 0%=no damage, read-out: Pre-emergence herbicidal activity (percentage phytotoxicity) LOLPE PRE
[21] = post-emergence, 360 h, POST-emergence, rate 250 g/ha, visual score 15 DAA (100%=total damage, 0%=no damage), read-out: Post-emergence herbicidal activity (percentage phytotoxicity) ALOMY POST
[22] = pre-emergence, 480 h, PRE-emergence, rate 250 g/ha, visual score 20 DAA (100%=total damage, 0%=no damage), read-out: Pre-emergence herbicidal activity (percentage phytotoxicity) ALOMY PRE
[23] = post-emergence, 360 h, POST-emergence, rate 250 g/ha, visual score 15 DAA (100%=total damage, 0%=no damage), read-out: Post-emergence herbicidal activity (percentage phytotoxicity) AVEFA POST
[24] = pre-emergence, 480 h, PRE-emergence, rate 250 g/ha, visual score 20 DAA (100%=total damage, 0%=no damage), read-out: Pre-emergence herbicidal activity (percentage phytotoxicity) AVEFA PRE
[25] = post-emergence, 360 h, POST-emergence, rate 250 g/ha, visual score 15 DAA (100%=total damage, 0%=no damage), read-out: Post-emergence herbicidal activity (percentage phytotoxicity) ECHCG POST
[26] = pre-emergence, 480 h, PRE-emergence, rate 250 g/ha, visual score 20 DAA (100%=total damage, 0%=no damage), read-out: Pre-emergence herbicidal activity (percentage phytotoxicity) ECHCG PRE
[27] = post-emergence, 360 h, POST-emergence, rate 250 g/ha, visual score 15 DAA (100%=total damage, 0%=no damage), read-out: Post-emergence herbicidal activity (percentage phytotoxicity) LOLPE POST
[28] = pre-emergence, 480 h, PRE-emergence, rate 250 g/ha, visual score 20 DAA (100%=total damage, 0%=no damage), read-out: Pre-emergence herbicidal activity (percentage phytotoxicity) LOLPE PRE

| Structure (SMILES) | pest or weed control at 250 g/ha [1, 13] [%] | pest or weed control at 250 g/ha [1, 14] [%] | pest or weed control at 250 g/ha [2, 15] [%] | pest or weed control at 250 g/ha [2, 16] [%] | pest or weed control at 250 g/ha [3, 17] [%] | pest or weed control at 250 g/ha [3, 18] [%] | pest or weed control at 250 g/ha [4, 19] [%] | pest or weed control at 250 g/ha [4, 20] [%] | pest or weed control at 250 g/ha [1, 21] [%] | pest or weed control at 250 g/ha [1, 22] [%] | pest or weed control at 250 g/ha [2, 23] [%] | pest or weed control at 250 g/ha [2, 24] [%] | pest or weed control at 250 g/ha [3, 25] [%] | pest or weed control at 250 g/ha [3, 26] [%] | pest or weed control at 250 g/ha [4, 27] [%] | pest or weed control at 250 g/ha [4, 28] [%] | also measured |
| --- | --- | --- | --- | --- | --- | --- | --- | --- | --- | --- | --- | --- | --- | --- | --- | --- | --- |
| Cc1cc(C)c(C2=C(OC(=O)C(C)(C)C)CC(CC(=O)NC3(C)COC3)C2=O)c(C)c1 (stereo not drawn) [Compound P15] | – | – | – | – | – | – | – | – | – | – | – | – | – | – | – | – | pest or weed control at 250 g/ha [1, 5]: 90%; pest or weed control at 250 g/ha [1, 6]: 70%; pest or weed control at 250 g/ha [2, 7]: 80%; pest or weed control at 250 g/ha [2, 8]: 40%; pest or weed control at 250 g/ha [3, 9]: 80%; pest or weed control at 250 g/ha [3, 10]: 100%; pest or weed control at 250 g/ha [4, 11]: 80%; pest or weed control at 250 g/ha [4, 12]: 80% |
| C#CCNC(=O)CC1CC(=O)C(c2c(C)cc(C#CC)cc2CC)C1=O (stereo not drawn) [Compound A68] | 90 | 70 | 100 | 100 | 100 | 100 | 100 | 100 | – | – | – | – | – | – | – | – | – |
| CCNC(=O)CC1CC(=O)C(c2c(C)cc(-c3ccc(C#N)cn3)cc2C)C1=O (stereo not drawn) [Compound B318] | – | – | – | – | – | – | – | – | 90 | 90 | 100 | 90 | 100 | 90 | 90 | 100 | – |
| Cc1cc(C)c(C2C(=O)CC(CC(=O)NC(C)(C)C3CC3)C2=O)c(C)c1 (stereo not drawn) [Compound B65] | – | – | – | – | – | – | – | – | – | – | – | – | – | – | – | – | pest or weed control at 250 g/ha ([1]; post-emergence, 360 h, 250 g/ha, post-emergence, 15 DAA, visual assessment (100%=total damage, 0%=no damage), read-out: Post-emergence herbicidal activity (percentage phytotoxicity) ALOMY POST): 70%; pest or weed control at 250 g/ha ([1]; pre-emergence, 480 h, 250 g/ha, pre-emergence, 20 DAA, visual assessment (100%=total damage, 0%=no damage), read-out: Pre-emergence herbicidal activity (percentage phytotoxicity) ALOMY PRE): 80%; pest or weed control at 250 g/ha ([2]; post-emergence, 360 h, 250 g/ha, post-emergence, 15 DAA, visual assessment (100%=total damage, 0%=no damage), read-out: Post-emergence herbicidal activity (percentage phytotoxicity) AVEFA POST): 50%; pest or weed control at 250 g/ha ([2]; pre-emergence, 480 h, 250 g/ha, pre-emergence, 20 DAA, visual assessment (100%=total damage, 0%=no damage), read-out: Pre-emergence herbicidal activity (percentage phytotoxicity) AVEFA PRE): 60%; pest or weed control at 250 g/ha ([3]; post-emergence, 360 h, 250 g/ha, post-emergence, 15 DAA, visual assessment (100%=total damage, 0%=no damage), read-out: Post-emergence herbicidal activity (percentage phytotoxicity) ECHCG POST): 70%; pest or weed control at 250 g/ha ([3]; pre-emergence, 480 h, 250 g/ha, pre-emergence, 20 DAA, visual assessment (100%=total damage, 0%=no damage), read-out: Pre-emergence herbicidal activity (percentage phytotoxicity) ECHCG PRE): 90%; pest or weed control at 250 g/ha ([4]; post-emergence, 360 h, 250 g/ha, post-emergence, 15 DAA, visual assessment (100%=total damage, 0%=no damage), read-out: Post-emergence herbicidal activity (percentage phytotoxicity) LOLPE POST): 70%; pest or weed control at 250 g/ha ([4]; pre-emergence, 480 h, 250 g/ha, pre-emergence, 20 DAA, visual assessment (100%=total damage, 0%=no damage), read-out: Pre-emergence herbicidal activity (percentage phytotoxicity) LOLPE PRE): 80% |
| Cc1cnc(CNC(=O)CC2CC(=O)C(c3c(C)cc(-c4ncc(F)cn4)cc3C)C2=O)cn1 (stereo not drawn) [Compound A157] | 80 | 60 | 90 | 70 | 100 | 90 | 90 | 70 | – | – | – | – | – | – | – | – | – |
| CC#Cc1cc(C)c(C2C(=O)CC(CC(=O)NCc3cccc(Cl)c3)C2=O)c(C)c1 (stereo not drawn) [Compound B182] | – | – | – | – | – | – | – | – | 100 | 100 | 100 | 90 | 100 | 100 | 100 | 100 | – |
| Cc1cc(-n2cc(Cl)cn2)cc(C)c1C1C(=O)CC(CC(=O)NCc2ccccn2)C1=O (stereo not drawn) [Compound A71] | 100 | 80 | 90 | 80 | 100 | 90 | 70 | 60 | – | – | – | – | – | – | – | – | – |
| CCc1cc(OCC(F)(F)F)cc(C)c1C1C(=O)CC(CC(=O)NCc2ccc(C#N)cc2)C1=O (stereo not drawn) [Compound B216] | – | – | – | – | – | – | – | – | 100 | 80 | 90 | 70 | 100 | 90 | 90 | 70 | – |
| CC#Cc1cc(C)c(C2C(=O)CC(CC(=O)NCC3CC3)C2=O)c(C)c1 (stereo not drawn) [Compound A63] | 100 | 100 | 100 | 90 | 100 | 100 | 90 | 100 | – | – | – | – | – | – | – | – | – |
| Cc1cc(-c2ccc(F)cn2)cc(C)c1C1C(=O)CC(CC(=O)NCc2cccc(Br)c2)C1=O (stereo not drawn) [Compound B384] | – | – | – | – | – | – | – | – | – | – | – | – | – | – | – | – | pest or weed control at 250 g/ha [1, 5]: 90%; pest or weed control at 250 g/ha [1, 6]: 80%; pest or weed control at 250 g/ha [2, 7]: 100%; pest or weed control at 250 g/ha [2, 8]: 80%; pest or weed control at 250 g/ha [3, 9]: 40%; pest or weed control at 250 g/ha [3, 10]: 90%; pest or weed control at 250 g/ha [4, 11]: 90%; pest or weed control at 250 g/ha [4, 12]: 80% |
| C/C=C/c1cc(C)c(C2C(=O)CC(CC(=O)N(C)C(C)(C)C)C2=O)c(C)c1 (stereo not drawn) [Compound B249] | – | – | – | – | – | – | – | – | 70 | 80 | 70 | 30 | 80 | 80 | 60 | 70 | – |
| Cc1cc(-c2ncc(F)cc2F)cc(C)c1C1C(=O)CC(CC(=O)NCc2ccccc2)C1=O (stereo not drawn) [Compound B181] | – | – | – | – | – | – | – | – | 100 | 70 | 100 | 70 | 100 | 100 | 100 | 100 | – |
